{"source": "ChEMBL document CHEMBL4052645", "about": "“Discovery of potent and efficacious pyrrolopyridazines as dual JAK1/3 inhibitors” (Bioorg Med Chem Lett, 2017)", "key": {"[1]": {"biological_target": "Tyrosine-protein kinase FRK (Homo sapiens) (UniProt P42685)", "experiment": "Inhibition of wild-type human partial length FRK (A215 to F503 residues) expressed in bacterial expression system assessed as residual activity at 50 nM by Kinomescan method relative to control"}, "[2]": {"biological_target": "Tyrosine-protein kinase BTK (Homo sapiens) (UniProt Q06187)", "experiment": "Inhibition of wild-type human full length BTK (M1 to S659 residues) expressed in mammalian expression system assessed as residual activity at 50 nM by Kinomescan method relative to control"}, "[3]": {"biological_target": "Tyrosine-protein kinase CSK (Homo sapiens) (UniProt P41240)", "experiment": "Inhibition of wild-type human full length CSK (M1 to L450 residues) expressed in bacterial expression system assessed as residual activity at 50 nM by Kinomescan method relative to control"}, "[4]": {"biological_target": "Serine/threonine-protein kinase 24 (Homo sapiens) (UniProt Q9Y6E0)", "experiment": "Inhibition of wild-type human partial length MST3 (A30 to S311 residues) expressed in bacterial expression system assessed as residual activity at 50 nM by Kinomescan method relative to control"}, "[5]": {"biological_target": "Fibroblast growth factor receptor 2 (Homo sapiens) (UniProt P21802)", "experiment": "Inhibition of wild-type human partial length FGFR2 (D457 to E769 residues) expressed in bacterial expression system assessed as residual activity at 50 nM by Kinomescan method relative to control"}, "[6]": {"biological_target": "Ribosomal protein S6 kinase alpha-6 (Homo sapiens) (UniProt Q9UK32)", "sequence (Q9UK32 whole entry, the tested form may be a part)": "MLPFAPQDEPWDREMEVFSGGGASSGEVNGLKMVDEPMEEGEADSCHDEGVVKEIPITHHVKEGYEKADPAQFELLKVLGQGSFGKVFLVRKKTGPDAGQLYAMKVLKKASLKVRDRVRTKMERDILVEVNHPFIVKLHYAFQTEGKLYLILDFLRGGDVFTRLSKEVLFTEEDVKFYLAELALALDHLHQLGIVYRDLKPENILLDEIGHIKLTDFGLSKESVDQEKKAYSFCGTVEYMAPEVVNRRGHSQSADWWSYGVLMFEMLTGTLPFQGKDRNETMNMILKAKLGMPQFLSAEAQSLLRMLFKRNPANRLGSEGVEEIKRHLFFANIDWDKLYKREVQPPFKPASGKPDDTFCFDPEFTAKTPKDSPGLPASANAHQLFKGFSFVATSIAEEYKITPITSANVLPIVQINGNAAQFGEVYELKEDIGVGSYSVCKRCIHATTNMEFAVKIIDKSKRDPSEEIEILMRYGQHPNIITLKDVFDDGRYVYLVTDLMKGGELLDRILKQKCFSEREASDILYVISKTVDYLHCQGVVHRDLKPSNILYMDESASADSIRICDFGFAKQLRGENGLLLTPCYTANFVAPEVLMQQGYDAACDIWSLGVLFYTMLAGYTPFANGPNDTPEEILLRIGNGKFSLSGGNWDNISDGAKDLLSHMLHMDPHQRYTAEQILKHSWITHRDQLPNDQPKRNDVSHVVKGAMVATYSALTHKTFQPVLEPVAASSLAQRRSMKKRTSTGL", "experiment": "Inhibition of human N-terminal RSK4 kinase domain 1 (M1 to E397 residues) expressed in mammalian expression system assessed as residual activity at 50 nM by KINOMEscan assay relative to control"}, "[7]": {"biological_target": "Ribosomal protein S6 kinase alpha-6 (Homo sapiens) (UniProt Q9UK32)", "experiment": "Inhibition of wild-type human partial length C-terminal RSK4 kinase domain 2 (I401 to Y711 residues) expressed in bacterial expression system assessed as residual activity at 50 nM by Kinomescan method relative to control"}, "[8]": {"biological_target": "Serine/threonine-protein kinase 33 (Homo sapiens) (UniProt Q9BYT3)", "experiment": "Inhibition of wild-type human full length STK33 (M1 to L514 residues) expressed in bacterial expression system assessed as residual activity at 50 nM by Kinomescan method relative to control"}, "[9]": {"biological_target": "Non-receptor tyrosine-protein kinase TYK2 (Homo sapiens, UniProt P29597)", "experiment": "Inhibition of TYK2 (unknown origin) assessed as residual activity at 50 nM by KINOMEscan assay relative to control"}, "[10]": {"biological_target": "Serine/threonine-protein kinase D1 (Homo sapiens) (UniProt Q15139)", "experiment": "Inhibition of wild-type human partial length PKD1 (G551 to E870 residues) expressed in bacterial expression system assessed as residual activity at 50 nM by Kinomescan method relative to control"}, "[11]": {"biological_target": "Epidermal growth factor receptor (Homo sapiens) (UniProt P00533)", "experiment": "Inhibition of wild-type human partial length EGFR (R669 to V1011 residues) expressed in bacterial expression system assessed as residual activity at 50 nM by Kinomescan method relative to control"}, "[12]": {"biological_target": "Proto-oncogene tyrosine-protein kinase receptor Ret (Homo sapiens) (UniProt P07949)", "sequence (P07949 whole entry, the tested form may be a part)": "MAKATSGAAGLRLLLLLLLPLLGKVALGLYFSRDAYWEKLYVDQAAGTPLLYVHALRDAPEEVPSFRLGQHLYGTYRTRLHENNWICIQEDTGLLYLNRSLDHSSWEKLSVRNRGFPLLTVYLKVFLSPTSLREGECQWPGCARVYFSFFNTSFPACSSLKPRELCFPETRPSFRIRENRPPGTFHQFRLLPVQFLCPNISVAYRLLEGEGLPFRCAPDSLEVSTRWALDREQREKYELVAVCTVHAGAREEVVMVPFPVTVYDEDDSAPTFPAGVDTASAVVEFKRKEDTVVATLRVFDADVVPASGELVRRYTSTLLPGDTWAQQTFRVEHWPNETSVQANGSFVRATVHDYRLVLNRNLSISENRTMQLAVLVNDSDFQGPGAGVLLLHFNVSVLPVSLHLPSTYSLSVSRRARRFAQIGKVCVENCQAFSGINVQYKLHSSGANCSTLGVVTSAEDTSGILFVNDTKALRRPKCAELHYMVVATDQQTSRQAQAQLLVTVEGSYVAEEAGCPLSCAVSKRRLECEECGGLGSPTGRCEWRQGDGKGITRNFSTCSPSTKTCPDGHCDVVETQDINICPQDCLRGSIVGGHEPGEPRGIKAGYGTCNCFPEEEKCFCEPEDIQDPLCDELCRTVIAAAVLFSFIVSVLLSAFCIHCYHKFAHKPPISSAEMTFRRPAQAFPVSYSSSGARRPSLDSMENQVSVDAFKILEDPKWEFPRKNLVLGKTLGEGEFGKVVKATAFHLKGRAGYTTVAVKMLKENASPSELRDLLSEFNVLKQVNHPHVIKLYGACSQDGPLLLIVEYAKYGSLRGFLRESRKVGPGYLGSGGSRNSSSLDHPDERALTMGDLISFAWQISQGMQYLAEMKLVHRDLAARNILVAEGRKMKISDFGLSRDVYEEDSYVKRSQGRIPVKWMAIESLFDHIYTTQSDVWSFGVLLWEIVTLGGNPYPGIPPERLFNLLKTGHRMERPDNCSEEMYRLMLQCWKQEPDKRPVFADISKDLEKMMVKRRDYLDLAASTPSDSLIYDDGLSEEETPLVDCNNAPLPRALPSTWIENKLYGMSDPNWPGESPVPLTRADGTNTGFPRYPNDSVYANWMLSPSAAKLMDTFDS", "experiment": "Inhibition of wild-type human partial length RET (E713 to D1014 residues) expressed in bacterial expression system assessed as residual activity at 50 nM by Kinomescan method relative to control"}, "[13]": {"biological_target": "Serine/threonine-protein kinase ULK1 (Homo sapiens) (UniProt O75385)", "experiment": "Inhibition of human ULK1 (M1 to T309 residues) expressed in mammalian expression system assessed as residual activity at 50 nM by KINOMEscan assay relative to control"}, "[14]": {"biological_target": "Focal adhesion kinase 1 (Homo sapiens) (UniProt Q05397)", "experiment": "Inhibition of wild-type human partial length FAK (D402 to R696 residues) expressed in bacterial expression system assessed as residual activity at 50 nM by Kinomescan method relative to control"}, "[15]": {"biological_target": "Ankyrin repeat and protein kinase domain-containing protein 1 (Homo sapiens) (UniProt Q8NFD2)", "experiment": "Inhibition of wild-type human partial length SGK288 (M1 to A305 residues) expressed in mammalian expression system assessed as residual activity at 50 nM by Kinomescan method relative to control"}, "[16]": {"biological_target": "Serine/threonine-protein kinase B-raf (Homo sapiens) (UniProt P15056)", "experiment": "Inhibition of wild-type human partial length BRAF (S429 to E741 residues) expressed in mammalian expression system assessed as residual activity at 50 nM by Kinomescan method relative to control"}, "[17]": {"biological_target": "Calcium/calmodulin-dependent protein kinase type 1G (Homo sapiens) (UniProt Q96NX5)", "sequence (Q96NX5 whole entry, the tested form may be a part)": "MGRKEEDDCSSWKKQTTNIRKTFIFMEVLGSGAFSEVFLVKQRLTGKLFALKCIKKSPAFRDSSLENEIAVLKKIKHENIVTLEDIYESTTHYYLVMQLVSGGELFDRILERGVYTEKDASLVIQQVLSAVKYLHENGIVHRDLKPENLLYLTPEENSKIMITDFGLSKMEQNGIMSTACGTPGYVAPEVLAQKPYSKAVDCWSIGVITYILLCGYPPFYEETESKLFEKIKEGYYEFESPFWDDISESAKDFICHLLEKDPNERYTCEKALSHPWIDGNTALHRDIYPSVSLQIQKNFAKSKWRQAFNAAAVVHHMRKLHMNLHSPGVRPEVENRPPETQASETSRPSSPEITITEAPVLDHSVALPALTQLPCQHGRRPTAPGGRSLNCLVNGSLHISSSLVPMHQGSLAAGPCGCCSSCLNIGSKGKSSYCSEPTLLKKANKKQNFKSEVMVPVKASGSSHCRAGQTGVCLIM", "experiment": "Inhibition of wild-type human partial length CAMK1G (M1 to A342 residues) expressed in bacterial expression system assessed as residual activity at 50 nM by Kinomescan method relative to control"}, "[18]": {"biological_target": "Serine/threonine-protein kinase ULK3 (Homo sapiens) (UniProt Q6PHR2)", "experiment": "Inhibition of wild-type human partial length ULK3 (M1 to Q290 residues) expressed in mammalian expression system assessed as residual activity at 50 nM by Kinomescan method relative to control"}, "[19]": {"biological_target": "Serine/threonine-protein kinase PAK 2 (Homo sapiens) (UniProt Q13177)", "experiment": "Inhibition of wild-type human partial length PAK2 (P151 to R525 residues) expressed in bacterial expression system assessed as residual activity at 50 nM by Kinomescan method relative to control"}, "[20]": {"biological_target": "Cyclin-dependent kinase 16 (Homo sapiens) (UniProt Q00536)", "sequence (Q00536 whole entry, the tested form may be a part)": "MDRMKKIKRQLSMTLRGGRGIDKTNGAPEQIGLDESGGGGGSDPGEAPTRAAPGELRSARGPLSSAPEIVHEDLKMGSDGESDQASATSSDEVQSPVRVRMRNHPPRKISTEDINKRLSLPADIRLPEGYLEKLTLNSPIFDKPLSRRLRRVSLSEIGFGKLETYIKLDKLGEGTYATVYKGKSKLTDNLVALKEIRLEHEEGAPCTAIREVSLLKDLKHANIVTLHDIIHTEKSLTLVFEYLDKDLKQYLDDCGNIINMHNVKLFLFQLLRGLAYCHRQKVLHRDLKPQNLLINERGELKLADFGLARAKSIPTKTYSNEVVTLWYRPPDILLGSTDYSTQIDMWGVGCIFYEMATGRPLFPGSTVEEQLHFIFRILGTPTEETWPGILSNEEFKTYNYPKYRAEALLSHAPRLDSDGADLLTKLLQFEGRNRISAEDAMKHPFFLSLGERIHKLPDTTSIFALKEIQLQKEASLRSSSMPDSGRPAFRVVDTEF", "experiment": "Inhibition of wild-type human partial length PCTAIRE1 (G160 to A474 residues) expressed in mammalian expression system assessed as residual activity at 50 nM by Kinomescan method relative to control"}, "[21]": {"biological_target": "Myotonin-protein kinase (Homo sapiens) (UniProt Q09013)", "experiment": "Inhibition of human DMPK1 (V47 to N415 residues) expressed in bacterial expression system assessed as residual activity at 50 nM by KINOMEscan assay relative to control"}, "[22]": {"biological_target": "Serine/threonine-protein kinase Sgk3 (Homo sapiens) (UniProt Q96BR1)", "sequence (Q96BR1 whole entry, the tested form may be a part)": "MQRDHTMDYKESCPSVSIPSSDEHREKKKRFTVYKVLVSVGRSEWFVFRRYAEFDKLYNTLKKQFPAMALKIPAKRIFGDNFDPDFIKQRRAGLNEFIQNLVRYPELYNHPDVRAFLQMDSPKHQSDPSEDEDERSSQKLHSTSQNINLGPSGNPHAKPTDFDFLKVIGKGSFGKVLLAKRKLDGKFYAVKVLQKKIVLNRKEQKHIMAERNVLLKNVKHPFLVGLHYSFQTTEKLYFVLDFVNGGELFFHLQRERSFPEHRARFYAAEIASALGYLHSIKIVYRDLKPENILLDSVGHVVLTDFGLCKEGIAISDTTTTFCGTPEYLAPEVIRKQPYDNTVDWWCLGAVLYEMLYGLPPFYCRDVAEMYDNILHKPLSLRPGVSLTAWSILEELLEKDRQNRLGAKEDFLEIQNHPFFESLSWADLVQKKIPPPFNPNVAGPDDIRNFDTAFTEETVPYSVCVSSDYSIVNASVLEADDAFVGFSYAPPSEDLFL", "experiment": "Inhibition of wild-type human partial length SGK3 (M119 to L496 residues) expressed in mammalian expression system assessed as residual activity at 50 nM by Kinomescan method relative to control"}, "[23]": {"biological_target": "Atypical kinase COQ8B, mitochondrial (Homo sapiens) (UniProt Q96D53)", "sequence (Q96D53 whole entry, the tested form may be a part)": "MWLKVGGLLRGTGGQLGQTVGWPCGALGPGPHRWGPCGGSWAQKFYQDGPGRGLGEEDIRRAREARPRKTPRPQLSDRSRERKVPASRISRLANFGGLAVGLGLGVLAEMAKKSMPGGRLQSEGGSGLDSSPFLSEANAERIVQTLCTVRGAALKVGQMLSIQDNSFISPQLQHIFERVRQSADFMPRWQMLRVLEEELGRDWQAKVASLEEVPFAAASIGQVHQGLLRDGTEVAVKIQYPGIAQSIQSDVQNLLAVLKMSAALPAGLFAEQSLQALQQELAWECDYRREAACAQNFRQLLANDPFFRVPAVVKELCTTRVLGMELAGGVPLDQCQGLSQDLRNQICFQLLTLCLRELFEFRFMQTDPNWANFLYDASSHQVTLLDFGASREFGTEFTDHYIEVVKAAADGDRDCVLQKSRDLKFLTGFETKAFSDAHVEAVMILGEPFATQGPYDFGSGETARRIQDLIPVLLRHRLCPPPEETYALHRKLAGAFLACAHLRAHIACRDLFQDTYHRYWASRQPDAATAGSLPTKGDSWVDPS", "experiment": "Inhibition of wild-type human full length ADCK4 (M1 to S544 residues) expressed in bacterial expression system assessed as residual activity at 50 nM by Kinomescan method relative to control"}, "[24]": {"biological_target": "Tyrosine-protein kinase JAK1 (Homo sapiens, UniProt P23458)", "sequence (P23458 whole entry)": "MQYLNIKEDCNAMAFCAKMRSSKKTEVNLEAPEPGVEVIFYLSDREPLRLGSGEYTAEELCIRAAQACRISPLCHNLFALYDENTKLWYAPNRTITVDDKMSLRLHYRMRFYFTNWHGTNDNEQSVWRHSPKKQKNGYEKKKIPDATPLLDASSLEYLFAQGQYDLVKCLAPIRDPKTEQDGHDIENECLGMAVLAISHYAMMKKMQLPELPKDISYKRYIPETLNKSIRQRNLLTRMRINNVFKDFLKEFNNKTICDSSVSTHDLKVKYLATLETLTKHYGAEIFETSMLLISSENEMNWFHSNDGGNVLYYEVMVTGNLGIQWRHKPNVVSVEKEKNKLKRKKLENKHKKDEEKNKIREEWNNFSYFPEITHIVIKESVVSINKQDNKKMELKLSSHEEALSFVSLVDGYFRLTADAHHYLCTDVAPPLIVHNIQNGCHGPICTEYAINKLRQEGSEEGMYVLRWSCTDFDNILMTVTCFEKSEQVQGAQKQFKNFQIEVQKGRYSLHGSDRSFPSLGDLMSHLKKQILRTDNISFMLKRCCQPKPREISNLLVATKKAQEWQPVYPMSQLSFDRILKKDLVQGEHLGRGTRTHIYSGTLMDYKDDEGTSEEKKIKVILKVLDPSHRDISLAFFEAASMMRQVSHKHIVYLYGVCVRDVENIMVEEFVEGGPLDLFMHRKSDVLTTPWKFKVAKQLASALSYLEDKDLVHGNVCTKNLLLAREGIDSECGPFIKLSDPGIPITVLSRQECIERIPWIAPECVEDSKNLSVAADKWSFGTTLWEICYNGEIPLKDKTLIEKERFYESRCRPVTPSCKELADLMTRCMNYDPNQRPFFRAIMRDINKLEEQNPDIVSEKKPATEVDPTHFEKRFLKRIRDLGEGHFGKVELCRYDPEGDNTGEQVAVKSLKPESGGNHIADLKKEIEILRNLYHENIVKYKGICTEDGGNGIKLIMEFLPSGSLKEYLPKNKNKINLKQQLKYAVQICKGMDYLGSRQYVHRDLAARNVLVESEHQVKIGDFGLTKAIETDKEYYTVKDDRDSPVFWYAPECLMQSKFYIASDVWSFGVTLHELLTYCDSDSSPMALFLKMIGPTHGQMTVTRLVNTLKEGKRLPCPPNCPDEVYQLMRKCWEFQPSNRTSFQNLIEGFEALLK", "experiment": "Inhibition of GST-tagged JAK1 (unknown origin) after 3 hrs by Caliper assay"}, "[25]": {"biological_target": "Cyclin-dependent kinase 5 (Homo sapiens) (UniProt Q00535)", "experiment": "Inhibition of wild-type human full length CDK5 (M1 to P292 residues) expressed in bacterial expression system assessed as residual activity at 50 nM by Kinomescan method relative to control"}, "[26]": {"biological_target": "Microtubule-associated serine/threonine-protein kinase 1 (Homo sapiens) (UniProt Q9Y2H9)", "experiment": "Inhibition of wild-type human partial length MAST1 (S346 to V730 residues) expressed in mammalian expression system assessed as residual activity at 50 nM by Kinomescan method relative to control"}}, "data": [{"smiles": "COc1ccc(-c2cc3c(N[C@@H]4CC[C@](C)(N)C4(C)C)c(C(N)=O)cnn3c2)cn1", "values": [{"measurement": "Activity", "setting": "[1]", "result": 100, "unit": "%"}, {"measurement": "Activity", "setting": "[2]", "result": 100, "unit": "%"}, {"measurement": "Activity", "setting": "[3]", "result": 100, "unit": "%"}, {"measurement": "Activity", "setting": "[4]", "result": 61, "unit": "%"}, {"measurement": "Activity", "setting": "[5]", "result": 89, "unit": "%"}, {"measurement": "Activity", "setting": "[6]", "result": 46, "unit": "%"}, {"measurement": "Activity", "setting": "[7]", "result": 96, "unit": "%"}, {"measurement": "Activity", "setting": "[8]", "result": 100, "unit": "%"}, {"measurement": "Activity", "setting": "[9]", "result": 50, "unit": "%"}, {"measurement": "Activity", "setting": "[10]", "result": 96, "unit": "%"}, {"measurement": "Activity", "setting": "[11]", "result": 100, "unit": "%"}, {"measurement": "Activity", "setting": "[12]", "result": 92, "unit": "%"}, {"measurement": "Activity", "setting": "[13]", "result": 61, "unit": "%"}, {"measurement": "Activity", "setting": "[14]", "result": 88, "unit": "%"}, {"measurement": "Activity", "setting": "[15]", "result": 100, "unit": "%"}, {"measurement": "Activity", "setting": "[16]", "result": 100, "unit": "%"}, {"measurement": "Activity", "setting": "[17]", "result": 82, "unit": "%"}, {"measurement": "Activity", "setting": "[18]", "result": 100, "unit": "%"}, {"measurement": "Activity", "setting": "[19]", "result": 77, "unit": "%"}, {"measurement": "Activity", "setting": "[20]", "result": 89, "unit": "%"}, {"measurement": "Activity", "setting": "[21]", "result": 38, "unit": "%"}, {"measurement": "Activity", "setting": "[22]", "result": 84, "unit": "%"}, {"measurement": "Activity", "setting": "[23]", "result": 100, "unit": "%"}, {"measurement": "IC50", "setting": "[24]", "result": 1.9, "unit": "nM"}, {"measurement": "Activity", "setting": "[25]", "result": 92, "unit": "%"}, {"measurement": "Activity", "setting": "[26]", "result": 98, "unit": "%"}]}, {"smiles": "CC1(C)[C@H](Nc2c(C(N)=O)cnn3cc(-c4ccccc4)cc23)CC[C@]1(C)N", "values": [{"measurement": "Activity", "setting": "[1]", "result": 89, "unit": "%"}, {"measurement": "Activity", "setting": "[2]", "result": 99, "unit": "%"}, {"measurement": "Activity", "setting": "[3]", "result": 100, "unit": "%"}, {"measurement": "Activity", "setting": "[4]", "result": 38, "unit": "%"}, {"measurement": "Activity", "setting": "[5]", "result": 100, "unit": "%"}, {"measurement": "Activity", "setting": "[6]", "result": 14, "unit": "%"}, {"measurement": "Activity", "setting": "[7]", "result": 50, "unit": "%"}, {"measurement": "Activity", "setting": "[8]", "result": 100, "unit": "%"}, {"measurement": "Activity", "setting": "[9]", "result": 50, "unit": "%"}, {"measurement": "Activity", "setting": "[10]", "result": 100, "unit": "%"}, {"measurement": "Activity", "setting": "[11]", "result": 30, "unit": "%"}, {"measurement": "Activity", "setting": "[12]", "result": 100, "unit": "%"}, {"measurement": "Activity", "setting": "[13]", "result": 27, "unit": "%"}, {"measurement": "Activity", "setting": "[14]", "result": 88, "unit": "%"}, {"measurement": "Activity", "setting": "[15]", "result": 100, "unit": "%"}, {"measurement": "Activity", "setting": "[16]", "result": 92, "unit": "%"}, {"measurement": "Activity", "setting": "[17]", "result": 100, "unit": "%"}, {"measurement": "Activity", "setting": "[18]", "result": 100, "unit": "%"}, {"measurement": "Activity", "setting": "[19]", "result": 76, "unit": "%"}, {"measurement": "Activity", "setting": "[20]", "result": 100, "unit": "%"}, {"measurement": "Activity", "setting": "[21]", "result": 2.8, "unit": "%"}, {"measurement": "Activity", "setting": "[22]", "result": 56, "unit": "%"}, {"measurement": "Activity", "setting": "[23]", "result": 91, "unit": "%"}, {"measurement": "IC50", "setting": "[24]", "result": 0.4, "unit": "nM"}, {"measurement": "Activity", "setting": "[25]", "result": 94, "unit": "%"}, {"measurement": "Activity", "setting": "[26]", "result": 100, "unit": "%"}]}]}
